Patent publication US9732075B2, “Benzimidazole-proline derivatives” (IDORSIA PHARMACEUTICALS LTD, priority 2012, dated 2017)

Tests used:
human orexin-1 receptor = human orexin-1 receptor (Homo sapiens (Human), UniProt O43613); assay: In vitro assay: intracellular calcium measurements (FLIPR), antagonistic activity; format: cell-based; details: CHO cells expressing human orexin-1 receptor, orexin-A agonist, geometric mean, read-out: IC50 Ox1
Summary of the method: (§1)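 Dye-loaded CHO cells expressing either human orexin receptor are exposed to test antagonist for 120 min, then stimulated with orexin-A at 3 nM.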

human orexin-2 receptor = human orexin-2 receptor (Homo sapiens (Human), UniProt O43614); assay: as above; format: cell-based; details: CHO cells expressing human orexin-2 receptor, orexin-A agonist, geometric mean, read-out: IC50 Ox2
human orexin-2 receptor, sequence (O43614 whole entry): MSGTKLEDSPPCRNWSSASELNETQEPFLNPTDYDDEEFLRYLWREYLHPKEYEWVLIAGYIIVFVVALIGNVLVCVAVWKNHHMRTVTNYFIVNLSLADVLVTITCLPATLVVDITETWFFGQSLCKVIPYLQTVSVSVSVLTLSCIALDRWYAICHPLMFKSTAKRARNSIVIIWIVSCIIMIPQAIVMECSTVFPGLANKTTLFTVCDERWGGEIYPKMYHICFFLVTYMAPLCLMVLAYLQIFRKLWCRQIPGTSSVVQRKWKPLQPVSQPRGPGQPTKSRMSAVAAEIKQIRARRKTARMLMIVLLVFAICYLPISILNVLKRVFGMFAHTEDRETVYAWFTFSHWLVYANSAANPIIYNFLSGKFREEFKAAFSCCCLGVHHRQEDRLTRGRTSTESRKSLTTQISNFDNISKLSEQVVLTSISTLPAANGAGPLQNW
Summary of the method: as §1

human orexin-1 receptor, sequence (O43613 whole entry): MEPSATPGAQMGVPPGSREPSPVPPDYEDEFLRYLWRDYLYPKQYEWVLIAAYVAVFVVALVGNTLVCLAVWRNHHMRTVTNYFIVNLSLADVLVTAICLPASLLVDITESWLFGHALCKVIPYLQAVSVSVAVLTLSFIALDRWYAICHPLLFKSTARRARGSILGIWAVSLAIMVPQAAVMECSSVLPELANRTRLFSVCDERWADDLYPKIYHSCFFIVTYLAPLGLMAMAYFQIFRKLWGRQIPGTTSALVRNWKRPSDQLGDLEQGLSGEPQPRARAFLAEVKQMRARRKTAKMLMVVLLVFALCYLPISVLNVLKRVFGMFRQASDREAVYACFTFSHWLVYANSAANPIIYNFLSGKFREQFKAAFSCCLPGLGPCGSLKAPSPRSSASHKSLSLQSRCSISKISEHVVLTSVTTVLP

IC50 (human orexin-1 receptor) [nM] | IC50 (human orexin-2 receptor) [nM] | SMILES
73 | 102 | Cc1ccc(-c2cccc(C(F)(F)F)c2)c(C(=O)N2CCC[C@@]2(C)c2nc3cc(C(F)(F)F)ccc3[nH]2)c1 [Ex. 5.195]
1530 | 61 | C=C1C[C@@H](c2nc3cc(OC)ccc3[nH]2)N(C(=O)c2c(F)cccc2-n2nccn2)C1 [Ex. 6.19]
81 | 278 | Cc1nc(C(=O)N2CCCC2c2nc3cc(F)c(Br)cc3[nH]2)c(-c2ccccc2)s1 (stereo not drawn) [Ex. 1.136]
22 | 31 | Cc1ccc(-c2ncccn2)c(C(=O)N2CCC[C@@]2(C)c2nc3cccc(C)c3[nH]2)c1 [Ex. 5.278]
368 | 62 | C=C1C[C@@H](c2nc3ccccc3[nH]2)N(C(=O)c2nc(C)sc2-c2cccc(Cl)c2)C1 [Ex. 6.43]
7 | 133 | Cc1cc2[nH]c([C@@H]3[C@@H](C)CCN3C(=O)c3cc(Cl)ccc3-n3nccn3)nc2cc1Cl [Ex. 4.71]
5 | 9 | CO[C@@H]1C[C@@H](c2nc3ccc(Cl)c(C)c3[nH]2)N(C(=O)c2nc(C)sc2-c2ccc(C)cc2)C1 [Ex. 3.36]
13 | 19 | C=C1CC(c2nc3cc(Cl)c(C)cc3[nH]2)N(C(=O)c2cc(C)sc2-c2ccc(C)c(C)c2)C1 (racemic) [Ex. 6.80]
20 | 62 | C[C@@]1(c2nc3cc(F)c(Br)cc3[nH]2)CCCN1C(=O)c1cc(Cl)ccc1-n1nccn1 [Ex. 5.129]
1 | 3 | COc1ccc(-n2nccn2)c(C(=O)N2CCC[C@@]2(C)c2nc3c(C)c(Cl)ccc3n2C)c1 [Ex. 7.23]
26 | 24 | C=C1C[C@@H](c2nc3cc(OC)ccc3[nH]2)N(C(=O)c2nc(C3CC3)sc2-c2cccc(C)c2)C1 [Ex. 6.26]
33 | 2140 | C[C@@]1(c2nc3cc(Cl)c(C(F)(F)F)cc3[nH]2)CCCN1C(=O)c1nc(-c2cccc(F)c2)sc1-c1ccc(F)cc1 [Ex. 5.290]
77 | 4040 | COc1ccc(-c2nc(C(=O)N3CCC[C@@]3(C)c3nc4cc(Cl)c(C(F)(F)F)cc4[nH]3)c(-c3ccc(F)cc3)s2)cc1 [Ex. 5.293]
1 | 133 | Cc1nc(C(=O)N2CC[C@H](C)[C@H]2c2nc3c(C)c(Cl)ccc3[nH]2)c(-c2cccc(Cl)c2)s1 [Ex. 4.21]
19 | 3 | C=C1C[C@@H](c2nc3ccc(Cl)c(C)c3[nH]2)N(C(=O)c2nc(C)sc2-c2ccc(OC)nc2)C1 [Ex. 6.117]
15 | 3 | C=C1C[C@@H](c2nc3cc(OC)ccc3[nH]2)N(C(=O)c2nc(C)sc2-c2cccc(C)c2)C1 [Ex. 6.7]
29 | 4660 | Cc1cc(F)ccc1-c1nc(C(=O)N2CCC[C@@]2(C)c2nc3c(C)c(Cl)ccc3[nH]2)c(-c2ccc(F)cc2)s1 [Ex. 5.259]
18 | 183 | Cc1cc(Cl)cc2[nH]c([C@@H]3[C@@H](C)CCN3C(=O)c3ccccc3-n3nccn3)nc12 [Ex. 4.101]
1 | 81 | Cc1nc(C(=O)N2CC[C@H](C)[C@H]2c2nc3c(Cl)cccc3[nH]2)c(-c2ccc(C)c(C)c2)s1 [Ex. 4.125]
18 | 15 | C=C1C[C@@H](c2nc3cc(C(C)(C)C)ccc3[nH]2)N(C(=O)c2cc(OC)c(OC)cc2-n2nccn2)C1 [Ex. 6.170]
21 | 35 | CCn1c([C@]2(C)CCCN2C(=O)c2cc(C)ccc2-c2cccc(OC)c2)nc2cc(C)c(C)cc21 [Ex. 7.44]
1300 | 317 | Cc1nc(C(=O)N2C[C@@H](F)C[C@H]2c2nc3c(C)cccc3[nH]2)c(-c2ccccc2)s1 [Ex. 2.2]
16 | 115 | COCCn1c([C@]2(C)CCCN2C(=O)c2cc(C)ccc2-c2cccc(F)c2)nc2cc(C)c(C)cc21 [Ex. 7.36]
59 | 61 | Cc1ccc(-c2ccc(C)cc2C(=O)N2CCC[C@@]2(C)c2nc3cc(C(F)(F)F)c(Cl)cc3[nH]2)cc1 [Ex. 5.154]
